Consider four compounds from patent publication US7223793B2, “Phenolic acid derivatives and composition for preventing or treating blood lipid level-related diseases comprising the same” (Bionutrigen Co., Ltd., priority 2001, dated 2007).

This assay has as its system ACAT. Nature of the assay: ACAT activity in liver microsomes of treated rats (Experimental Example 6, Step 3). The format is in vivo, rat. The note with it: liver microsomes of rats fed 6 weeks; for ACAT activity: average; for ACAT activity inhibition: relative to control group. As for the experimental part:
1 g of the liver tissue taken from each sacrificed rat of Step 1 was homogenized in 5 ml of the first homogenization medium {0.1 M KH2PO4(pH 7.4), 0.1 mM EDTA and 10 mM β-mercaptoethanol}. The homogenate was centrifuged at 3,000×g for 15 minutes at 4° C. and the supernatant thus obtained was put into a tube and centrifuged at 15,000×g for 15 minutes at 4° C. to obtain a supernatant. The resulting supernatant was put into a 5 mL ultracentrifuge tube (Beckman) and centrifuged at 100,000×g for 1 hour at 4° C. The supernatant was removed off and pellets thus obtained were suspended in 3 mL of the first homogenization medium and centrifuged at 100,000×g for 1 hour at 4° C. The resulting supernatant was removed off and pellets thus obtained were suspended in 1 ml of the first homogenization medium. The resulting suspension was stored in a deep freezer.
6.67 μl of 1 mg/ml cholesterol solution in acetone was mixed with 6 μl of 10% Triton WR-1339 (Sigma Co.) in acetone. Acetone was removed from the mixture by evaporation under a nitrogen flow. To the resulting mixture, distilled water was added to adjust the concentration of cholesterol to 300 mg/10 ml. 10 μl of the resulting aqueous cholesterol solution was mixed with 10 μl of 1 M KH2PO4 (pH 7.4), 5 μl of 0.6 mM bovine serum albumin (BSA), 10 μl of the microsome solution obtained as above and 55 μl of distilled water (total 90 μl). The mixture was pre-incubated in a water bath at 37° C. for 30 minutes.
10 μl of oleyl-CoA solution […] prepared by mixing radiolabelled oleyl-CoA with oleyl-CoA was added to the pre-incubated mixture and the resulting mixture was incubated in a water bath at 37° C. for 30 minutes. 500 μl of isopropanol:heptane mixture (4:1 (v/v)), 300 μl of heptane and 200 μl of 0.1 M KH2PO4 (pH 7.4) were added to the mixture. The mixture was mixed vigorously using a vortex mixer and then allowed to stand at room temperature for 2 minutes.
200 μl of the resulting supernatant was put in a scintillation bottle and 4 mL of scintillation fluid (Lumac) was added thereto. The mixture was assayed for radioactivity with a scintillation counter. ACAT activity was calculated from the measured radioactivity, which was used to determine the ACAT activity inhibition (%).
A general note: Liver microsomes are a subcellular fraction often used to study metabolism.

Each structure is given as a SMILES string.

Turning to `CC[C@H](C)C(=O)O[C@H]1C[C@@H](C)C=C2C=C[C@H](C)[C@H](CC[C@@H]3C[C@@H](O)CC(=O)O3)[C@H]21` [Lovastatin, reference compound], the ACAT activity is reported as 166.66 pmol/minute/mg protein and the ACAT activity inhibition is 10.46%.
For `COC(=O)C(CO)NC(=O)CCc1ccc(O)c(O)c1` (centres unmarked) [BN30063, 2-[3-(3,4-dihydroxyphenyl)propionylamino]-3-hydroxy propionic acid methyl ester], in that order: 186.56 pmol/minute/mg protein and 0%.
In the same order, the values of `CC(C)CC(NC(=O)CCc1ccc(O)c(O)c1)C(=O)O` (centres unmarked) [BN30064, 2-[3-(3,4-dihydroxyphenyl)propionylamino]-4-methyl pentanoic acid] are 152.49 pmol/minute/mg protein and 18.07%.
`O=C(O)CC(NC(=O)CCc1ccc(O)c(O)c1)C(=O)O` (centres unmarked) [BN30067, 2-[3-(3,4-dihydroxyphenyl)propionylamino]-succinic acid] returned an ACAT activity of 160.01 pmol/minute/mg protein and an ACAT activity inhibition of 14.03%.
